Structures can show the parent of a compound that is named as a salt.
Assays:
Details in all cases: stereoisomer not certain
[1] = RP, Waters ACQUITY UPLC BEH C18, 100 × 1 mm, 1.7 µm, 50 °C, 0.3 mL/min, estimated dead time 0.17 min; A: water + 0.1% formic acid + 20 mM ammonium formate; B: methanol + 0.1% formic acid + 20 mM ammonium formate; gradient (min/%B) 0/0 15/100 21/100 22/0 30/0
[2] = RP, Phenomenex Synergi Polar-RP, 100 × 3 mm, 2.5 µm, 40 °C, 0.4 mL/min, estimated dead time 1.1 min; A: water + 1 mM ammonium fluoride; B: methanol + 1 mM ammonium fluoride; C: acetonitrile; D: 50% isopropanol + 50% acetone; gradient (min/%B/%C/%D) 0/5/0/0 2/5/0/0 8/95/0/0 12/80/15/0 19/25/70/0 19.5/0/25/70 21.5/0/25/70 22.5/0/25/0 23/5/0/0
[3] = RP, Waters ACQUITY UPLC BEH C18, 100 × 1 mm, 1.7 µm, 50 °C, 0.3 mL/min, estimated dead time 0.17 min; A: water + 10 mM ammonium bicarbonate; B: 10% water + 90% methanol + 10 mM ammonium bicarbonate; gradient (min/%B) 0/0 15/100 21/100 22/0 30/0

Row | SMILES | LC retention time [1] [min] | LC retention time [2] [min] | LC retention time [3] [min]
1 | Oc1cccc2ccccc12 [1-Naphthol] | 12.5 | 10 | 12.7
2 | O=S(=O)(O)c1ccc2ccccc2c1 [2-Naphthalene sulfonic acid] | 8.66 | 7.25 | 8.6
3 | Oc1ccccc1-c1ccccc1 [2-Phenylphenol] |  | 9.93 | 13.9
4 | O=c1[nH]c2ccccc2s1 [2-hydroxybenzothiazole] | 10.6 | 9.61 | 10.5
5 | Oc1ccc(Cl)cc1 [4-Chlorophenol] |  | 8.39 | 11.3
6 | CC(C)(c1ccccc1)c1ccc(O)cc1 [4-Cumylphenol] |  | 11.1 | 15.7
7 | O=C(O)CCC(=O)c1ccc(F)cc1 [4-Fluorobenzoylpropionic acid] | 10.5 | 8.54 | 7.83
8 | O=[N+]([O-])c1ccc(O)cc1 [4-Nitrophenol] | 9.08 | 9.25 | 3.3
9 | CCCCCCCCCc1ccc(O)cc1 [4-n-Nonylphenol] |  | 11.6 | 18.1
10 | O=c1[nH]cc(F)c(=O)[nH]1 [5-Fluorouracil] | 7.72 | 2.09 | 
11 | CCCc1cc(=O)[nH]c(=S)[nH]1 [6-Propyl-2-thiouracil] | 7.69 | 8.14 | 
12 | CC1=CC(=O)NS(=O)(=O)O1 [Acesulfame] | 2.66 | 2.11 | 2.41
13 | CC(C)N1C(=O)c2ccccc2NS1(=O)=O [Bentazone] | 11.5 | 7.2 | 7.66
14 | O=S(=O)(O)c1ccccc1 [Benzenesulfonic acid] | 2.96 | 2.01 | 2.77
15 | O=C(O)c1cc(Oc2ccc(Cl)cc2Cl)ccc1[N+](=O)[O-] [Bifenox free acid] | 14.3 | 9.15 | 13.2
16 | CC(C)(c1ccc(O)cc1)c1ccc(O)cc1 [Bisphenol A] | 18.3 | 10.3 | 
17 | Oc1ccc(Cc2ccc(O)cc2)cc1 [Bisphenol F] |  | 9.94 | 11.9
18 | Oc1c(Br)cc(Cl)cc1Cc1cc(Cl)cc(Br)c1O [Bromochlorophen] | 17.3 | 11.2 | 16.4
19 | CCCCOC(=O)c1ccc(O)cc1 [Butylparaben] |  | 10.6 | 14

Row | SMILES | LC retention time [1] [min] | LC retention time [2] [min] | LC retention time [3] [min]
20 | Oc1ccc(Cl)cc1Cc1ccccc1 [Chlorophene] |  | 11.2 | 15.9
21 | N#Cc1c(O)c(Cl)c(Cl)c(C#N)c1Cl [Chlorothalonil-4-hydroxy] | 12.3 | 9.06 | 11.8
22 | O=S(=O)(O)NC1CCCCC1 [Cyclamate] | 6.54 | 2.74 | 6.33
23 | CCCCCCCCCCOS(=O)(=O)O [Decyl sulfate] | 14.8 | 9.26 | 15.1
24 | Oc1ccc(Cl)cc1Cc1cc(Cl)ccc1O [Dichlorophen] | 15.2 | 10.9 | 15.1
25 | CC(Oc1ccc(Cl)cc1Cl)C(=O)O (stereo not drawn) [Dichlorprop] | 14 | 8.48 | 11.8
26 | CCC(C)c1cc([N+](=O)[O-])cc([N+](=O)[O-])c1O (stereo not drawn) [Dinoseb] | 15.5 | 10 | 12.4
27 | CCCCCCCCCCCCOS(=O)(=O)O [Dodecyl sulfate] | 16.2 | 9.67 | 16.4
28 | CCCCCCCCCCCCc1ccccc1S(=O)(=O)O [Dodecylbenzenesulfonic acid] | 17.2 | 10.1 | 17.5
29 | CCOC(=O)c1ccc(O)cc1 [Ethylparaben] | 11.6 | 9.81 | 11.1
30 | N#Cc1nn(-c2c(Cl)cc(C(F)(F)F)cc2Cl)c(N)c1C(F)(F)F [Fipronil desulfinyl] | 15.1 | 10.9 | 15.4
31 | N#Cc1nn(-c2c(Cl)cc(C(F)(F)F)cc2Cl)c(N)c1SC(F)(F)F [Fipronil sulfide] | 15.4 | 11 | 15.8
32 | N#Cc1nn(-c2c(Cl)cc(C(F)(F)F)cc2Cl)c(N)c1S(=O)(=O)C(F)(F)F [Fipronil sulfone] | 15.7 | 11.1 | 16
33 | CC(C)C(=O)Nc1ccc([N+](=O)[O-])c(C(F)(F)F)c1 [Flutamide] | 14.1 | 10.7 | 14.3
34 | NS(=O)(=O)c1cc2c(cc1Cl)NCNS2(=O)=O [Hydrochlorothiazide] | 5.2 | 7.62 | 4.67
35 | CC(C)Cc1ccc(C(C)C(=O)O)cc1 (stereo not drawn) [Ibuprofen] | 14.1 | 10.3 | 
36 | COc1ccc2c(c1)c(CC(=O)O)c(C)n2C(=O)c1ccc(Cl)cc1 [Indometacin] | 15.4 | 10.5 | 
37 | COC(=O)c1ccc(O)cc1 [Methylparaben] | 9.98 | 9.32 | 9.08
38 | CCc1cccc(C)c1N(C(=O)CS(=O)(=O)O)C(C)COC (stereo not drawn) [Metolachlor ESA] |  | 8.57 | 12.1

Row | SMILES | LC retention time [1] [min] | LC retention time [2] [min] | LC retention time [3] [min]
39 | CC(C)(O)c1ccccc1CCC(SCC1(CC(=O)O)CC1)c1cccc(C=Cc2ccc3ccc(Cl)cc3n2)c1 (stereo not drawn) [Montelukast] |  | 11.9 | 16.6
40 | CC(=O)Nc1ccc(O)c(C(=O)O)c1 [N-Acetyl mesalazine] | 6.82 | 2.92 | 4.58
41 | O=C(O)C(F)(F)C(F)(F)C(F)(F)F [Perfluorobutanoic acid] | 7.57 | 2.91 | 7.16
42 | O=C(O)C(F)(F)C(F)(F)C(F)(F)C(F)(F)C(F)(F)C(F)(F)C(F)(F)C(F)(F)C(F)(F)F [Perfluorodecanoic acid] | 15.9 | 9.39 | 16.1
43 | O=C(O)C(F)(F)C(F)(F)C(F)(F)C(F)(F)C(F)(F)C(F)(F)F [Perfluoroheptanoic acid] | 13.8 | 11.3 | 13.9
44 | O=C(O)C(F)(F)C(F)(F)C(F)(F)C(F)(F)C(F)(F)F [Perfluorohexanoic acid] | 12.7 | 8.19 | 12.7
45 | NS(=O)(=O)C(F)(F)C(F)(F)C(F)(F)C(F)(F)C(F)(F)C(F)(F)C(F)(F)C(F)(F)F [Perfluorooctanesulfonamide] | 16.5 | 10.6 | 15.7
46 | O=S(=O)(O)C(F)(F)C(F)(F)C(F)(F)C(F)(F)C(F)(F)C(F)(F)C(F)(F)C(F)(F)F [Perfluorooctanesulfonic acid] |  | 9.25 | 15.5
47 | O=C(O)C(F)(F)C(F)(F)C(F)(F)C(F)(F)C(F)(F)C(F)(F)C(F)(F)F [Perfluorooctanoic acid] | 14.7 | 8.97 | 14.8
48 | O=C(O)C(F)(F)C(F)(F)C(F)(F)C(F)(F)C(F)(F)C(F)(F)C(F)(F)C(F)(F)C(F)(F)C(F)(F)C(F)(F)C(F)(F)C(F)(F)F [Perfluorotetradecanoic acid] | 17.7 | 9.93 | 17.7
49 | CCC(C)C(=O)OC1CC(O)C=C2C=CC(C)C(CCC(O)CC(O)CC(=O)O)C21 (stereo not drawn) [Pravastatin] | 13.3 | 9.42 | 12.1
50 | CCCOC(=O)c1ccc(O)cc1 [Propylparaben] | 12.9 | 10.2 | 12.7
51 | O=C1NS(=O)(=O)c2ccccc21 [Saccharin] | 5.37 | 3.01 | 4.9
52 | CC(C)(c1cc(Br)c(O)c(Br)c1)c1cc(Br)c(O)c(Br)c1 [Tetrabromobisphenol A] | 16.6 | 11.7 | 14.6
53 | Cc1ccc(C(C)C)c(O)c1 [Thymol] |  | 10.6 | 14.7
54 | O=C(Nc1ccc(Cl)cc1)Nc1ccc(Cl)c(Cl)c1 [Triclocarban] |  | 11.3 | 
55 | Oc1cc(Cl)ccc1Oc1ccc(Cl)cc1Cl [Triclosan] |  | 11.5 | 
56 | CCCCC(=O)N(Cc1ccc(-c2ccccc2-c2nn[nH]n2)cc1)C(C(=O)O)C(C)C (stereo not drawn) [Valsartan] |  | 9.29 | 
57 | Cc1cc(O)ccc1Cl [p-Chlorocresol] |  | 8.57 | 13

Source: the RepoRT retention time repository (doi:10.1021/acs.analchem.1c00972)
